Data: article PMC12332667, “Role of Structural Modifications in Peptidomimetic Compounds as Potential Antimicrobial Agents against Staphylococcus aureus and Streptococcus pyogenes: Balancing Bioavailability, Safety, and Antimicrobial Activity” (ACS Omega, 2025)
Values after ≈ are worked out from the molar mass of the structure shown. Values joined by “and” are separate entries in the source; they are usually repeats but may differ in a detail not shown here. Identical values can stand only once. Each block holds one molecule with its values, some of them ahead of it.

Key:
E. coli ATCC 25922 = assay: MIC/MBC broth microdilution, E. coli; type: cell-based, Escherichia coli
Procedure, shortened: (§1)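 Standard NCCLS broth microdilution in BHI broth, inoculum approx. 10^5 CFU/mL, serially diluted peptidomimetics, 18 h at 37 °C. MIC was the lowest concentration with no obvious growth (≥90% inhibition versus untreated); MBC was the lowest giving ≤3 colonies on subculture (≥99.9% kill).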

S. mutans c.i. = assay: MIC/MBC broth microdilution, S. mutans; type: cell-based, Streptococcus mutans
Procedure, shortened: as §1

S. pyogenes ATCC 19615 = assay: MIC/MBC broth microdilution, S. pyogenes; type: cell-based, Streptococcus pyogenes; settings: S. pyogenes
Procedure, shortened: as §1

S. aureus ATCC 43300 = assay: MIC/MBC broth microdilution, S. aureus; type: cell-based, Staphylococcus aureus; settings: S. aureus
S. schleiferi c.i. = assay: MIC/MBC broth microdilution, S. schleiferi; type: cell-based, Staphylococcus schleiferi
Procedure, shortened: as §1

[1] = system: K. pneumoniae ATCC 700603; assay: MIC/MBC broth microdilution, K. pneumoniae; type: cell-based
Procedure, shortened: as §1

[2] = system: human dermal fibroblast cell line (46BR.1N); assay: XTT cell proliferation assay, fibroblasts; type: cell-based; settings: for effect on proliferation, in words: XTT, 48 and 72 h, 0.01–150 μg/mL
Procedure, shortened: (§2)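 Cells at 37 °C, 5% CO2 received peptidomimetics in serum-free HG-DMEM for 48 or 72 h; for 72 h, half the medium was renewed and peptide re-added at 48 h. XTT reagent was then incubated 4 h and absorbance read at 490 nm; Mann–Whitney U test, p ≤ 0.05.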

P. vulgaris ATCC 6896 = assay: MIC/MBC broth microdilution, P. vulgaris; type: cell-based, Proteus vulgaris
Procedure, shortened: as §1

P. aeruginosa ATCC 10145 = assay: MIC/MBC broth microdilution, P. aeruginosa; type: cell-based
Procedure, shortened: as §1

E. faecalis c.i. = assay: MIC/MBC broth microdilution, E. faecalis; type: cell-based, Enterococcus faecalis
Procedure, shortened: as §1

[3] = Hydrophobicity by reverse-phase chromatography; type: physicochemical; settings: acetonitrile content in the mobile phase at the retention time
Description: Reverse-phase chromatography was employed to assess the hydrophobicity characteristics of the peptidomimetics. Hydrophobicity was quantified by determining the acetonitrile content in the mobile phase at the retention time of a peptidyl derivative (Table S2). The least hydrophobic compound (40% acetonitrile) was A-198, which aligns with the calculations of hydrophobicity by SwissADME and pkCSM (Table ). Next in the hydrophobicity sequence were A-197, A-220, A-219, A-174, and A-221, eluting with 42.5-43.9% of acetonitrile. Then there were followed by […], and A-179, with the acetonitrile percentage of 44.8-49.8. The compounds A-176, A-20, A-152, A-134, and A-210 needed over 50% of acetonitrile to be eluted from the column.

[4] = system: immortalized human HaCaT keratinocytes; assay: XTT cell proliferation assay, keratinocytes; type: cell-based; settings: for effect on proliferation, in words: XTT, 48 and 72 h, 0.01–150 μg/mL
Procedure, shortened: as §2

fibroblasts (46BR.1N) = assay: LDH cytotoxicity test, fibroblasts; type: cell-based
Procedure, shortened: (§3)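 HaCaT keratinocytes and 46BR.1N fibroblasts, 5000 cells per well, grown 24 h, then exposed to peptidomimetics at 50, 100 and 150 μg/mL in serum-free medium for 48 h. LDH release in supernatant read at 450 nm, normalized to untreated (0%) and 1% Triton X-100 (maximal) controls.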

S. cohnii c.i. = assay: MIC/MBC broth microdilution, S. cohnii; type: cell-based, Staphylococcus cohnii
Procedure, shortened: as §1

S. intemrdius c.i. = assay: MIC/MBC broth microdilution, S. intermedius; type: cell-based, Staphylococcus intermedius
Procedure, shortened: as §1

[5] = system: immortalized human keratinocytes (HaCaT); assay: LDH cytotoxicity test, keratinocytes; type: cell-based
Procedure, shortened: as §3

S. agalactiae ATCC 27956 = assay: MIC/MBC broth microdilution, S. agalactiae; type: cell-based, Streptococcus agalactiae; settings: S. agalactiae
Procedure, shortened: as §1

[6] = up to 150 μg/mL, A-193 and A-179 after 48 h
[7] = 48 h, 50, 100 and 150 μg/mL, vs 1% Triton X-100

SMILES: CC(C)[C@@H](CNC(=O)C(=Cc1ccccc1)c1ccccc1)NC(=O)[C@H](CCCNC(=N)N)NC(=O)[C@H](CCCNC(=N)N)NC(=O)OCc1ccccc1 [Compound A-179]
MIC (E. coli ATCC 25922; H2O): > 512 µg/mL
MIC (E. coli ATCC 25922; water additive DMSO): > 512 µg/mL
MIC (E. coli ATCC 25922; water additive EtOH): > 512 µg/mL
MIC (S. mutans c.i.; H2O): > 512 µg/mL
MIC (S. mutans c.i.; water additive DMSO): > 512 µg/mL
MIC (S. mutans c.i.; water additive EtOH): > 512 µg/mL
MBC (S. pyogenes ATCC 19615; H2O): 32 µg/mL (≈ 42.4 µM)
MIC (S. pyogenes ATCC 19615; H2O): 16 µg/mL (≈ 21.2 µM)
MBC (S. pyogenes ATCC 19615; water additive DMSO): 32 µg/mL (≈ 42.4 µM)
MIC (S. pyogenes ATCC 19615; water additive DMSO): 16 µg/mL (≈ 21.2 µM)
MBC (S. pyogenes ATCC 19615; water additive EtOH): 32 µg/mL (≈ 42.4 µM)
MIC (S. pyogenes ATCC 19615; water additive EtOH): 8 µg/mL (≈ 10.6 µM)
MBC (S. aureus ATCC 43300; H2O): 32 µg/mL (≈ 42.4 µM)
MIC (S. aureus ATCC 43300; H2O): 32 µg/mL (≈ 42.4 µM)
MBC (S. aureus ATCC 43300; water additive DMSO): 32 µg/mL (≈ 42.4 µM)
MIC (S. aureus ATCC 43300; water additive DMSO): 16 µg/mL (≈ 21.2 µM)
MBC (S. aureus ATCC 43300; water additive EtOH): 32 µg/mL (≈ 42.4 µM)
MIC (S. aureus ATCC 43300; water additive EtOH): 32 µg/mL (≈ 42.4 µM)
MBC (S. schleiferi c.i.; water additive EtOH): 256 µg/mL (≈ 339 µM)
MIC ([1]; H2O): 512 µg/mL (≈ 678 µM)
MIC ([1]; water additive DMSO): > 512 µg/mL
MIC ([1]; water additive EtOH): > 512 µg/mL
effect on proliferation, in words [2]: negative impact
antiproliferative effect (decrease vs control) [2, 6]: ~50%
MIC (P. vulgaris ATCC 6896; H2O): > 512 µg/mL
MIC (P. vulgaris ATCC 6896; water additive DMSO): > 512 µg/mL
MIC (P. vulgaris ATCC 6896; water additive EtOH): > 512 µg/mL
MIC (P. aeruginosa ATCC 10145; H2O): 256 µg/mL (≈ 339 µM)
MIC (P. aeruginosa ATCC 10145; water additive DMSO): > 512 µg/mL
MIC (P. aeruginosa ATCC 10145; water additive EtOH): > 512 µg/mL
MBC (E. faecalis c.i.; water additive DMSO): 256 µg/mL (≈ 339 µM)
MIC (E. faecalis c.i.; water additive DMSO): 256 µg/mL (≈ 339 µM)
MBC (E. faecalis c.i.; water additive EtOH): 256 µg/mL (≈ 339 µM)
% AcCN (acetonitrile required for elution from the column) [3]: 49.8% and 44.8–49.8%
effect on proliferation, in words [4]: negative impact
antiproliferative effect (decrease vs control) [4, 6]: ~50%
cytotoxicity (LDH), in words (fibroblasts (46BR.1N); 48 h, 50-150 μg/mL): less pronounced in fibroblasts
MBC (S. cohnii c.i.; H2O): 32 µg/mL (≈ 42.4 µM)
MIC (S. cohnii c.i.; H2O): 16 µg/mL (≈ 21.2 µM)
MBC (S. cohnii c.i.; water additive DMSO): 32 µg/mL (≈ 42.4 µM)
MIC (S. cohnii c.i.; water additive DMSO): 32 µg/mL (≈ 42.4 µM)
MIC (S. cohnii c.i.; water additive EtOH): 32 µg/mL (≈ 42.4 µM)
MBC (S. intemrdius c.i.; H2O): 32 µg/mL (≈ 42.4 µM)
MIC (S. intemrdius c.i.; H2O): 16 µg/mL (≈ 21.2 µM)
MBC (S. intemrdius c.i.; water additive DMSO): 32 µg/mL (≈ 42.4 µM)
MIC (S. intemrdius c.i.; water additive DMSO): 16 µg/mL (≈ 21.2 µM)
MBC (S. intemrdius c.i.; water additive EtOH): 16 µg/mL (≈ 21.2 µM)
MIC (S. intemrdius c.i.; water additive EtOH): 16 µg/mL (≈ 21.2 µM)
cytotoxicity (LDH), in words ([5]; 48 h, 50-150 μg/mL): cytotoxic to keratinocytes at all concentrations

MIC (E. coli ATCC 25922; H2O): > 512 µg/mL
MIC (E. coli ATCC 25922; water additive DMSO): > 512 µg/mL
MIC (E. coli ATCC 25922; water additive EtOH): > 512 µg/mL
MIC (S. pyogenes ATCC 19615; H2O): > 512 µg/mL
MIC (S. pyogenes ATCC 19615; water additive DMSO): > 512 µg/mL
MIC (S. pyogenes ATCC 19615; water additive EtOH): > 512 µg/mL
MIC (S. aureus ATCC 43300; H2O): > 512 µg/mL
MIC (S. aureus ATCC 43300; water additive DMSO): > 512 µg/mL
MIC (S. aureus ATCC 43300; water additive EtOH): > 512 µg/mL
MIC (S. schleiferi c.i.; H2O): 256 µg/mL (≈ 446 µM)
MIC (S. schleiferi c.i.; water additive DMSO): 256 µg/mL (≈ 446 µM)
MIC (S. schleiferi c.i.; water additive EtOH): 256 µg/mL (≈ 446 µM)
MIC ([1]; H2O): > 512 µg/mL
MIC ([1]; water additive DMSO): > 512 µg/mL
MIC ([1]; water additive EtOH): > 512 µg/mL
MIC (P. vulgaris ATCC 6896; H2O): > 512 µg/mL
MIC (P. vulgaris ATCC 6896; water additive DMSO): > 512 µg/mL
MIC (P. vulgaris ATCC 6896; water additive EtOH): > 512 µg/mL
MIC (S. agalactiae ATCC 27956; H2O): > 512 µg/mL
MIC (S. agalactiae ATCC 27956; water additive DMSO): > 512 µg/mL
MIC (S. agalactiae ATCC 27956; water additive EtOH): > 512 µg/mL
MIC (P. aeruginosa ATCC 10145; H2O): > 512 µg/mL
MIC (P. aeruginosa ATCC 10145; water additive DMSO): > 512 µg/mL
MIC (P. aeruginosa ATCC 10145; water additive EtOH): > 512 µg/mL
MIC (E. faecalis c.i.; H2O): > 512 µg/mL
MIC (E. faecalis c.i.; water additive DMSO): > 512 µg/mL
MIC (E. faecalis c.i.; water additive EtOH): > 512 µg/mL
% AcCN (acetonitrile required for elution from the column) [3]: 49.6% and 44.8–49.8%
MIC (S. cohnii c.i.; H2O): > 512 µg/mL
MIC (S. cohnii c.i.; water additive DMSO): > 512 µg/mL
MIC (S. cohnii c.i.; water additive EtOH): > 512 µg/mL
SMILES: C=CCC(=O)NC[C@@H](NC(=O)[C@H](CC(C)C)NC(=O)[C@H](CCCNC(=N)N)NC(=O)OCc1ccccc1)C(C)C [Compound A-209]
MBC (S. mutans c.i.; H2O): 256 µg/mL (≈ 446 µM)
MBC (S. mutans c.i.; water additive DMSO): 256 µg/mL (≈ 446 µM)
MBC (S. mutans c.i.; water additive EtOH): 256 µg/mL (≈ 446 µM)
MBC (S. schleiferi c.i.; H2O): 512 µg/mL (≈ 892 µM)
MBC (S. schleiferi c.i.; water additive DMSO): 512 µg/mL (≈ 892 µM)
MBC (S. schleiferi c.i.; water additive EtOH): 512 µg/mL (≈ 892 µM)
effect on proliferation, in words [2]: did not exert any negative impact
effect on proliferation, in words [4]: did not exert any negative impact
cytotoxicity (LDH) (fibroblasts (46BR.1N); [7]): 10–15%
concentration at which cytotoxic effect starts (fibroblasts (46BR.1N); LDH, 48 h): > 150 µg/mL and 150 µg/mL
cytotoxicity (LDH) [5, 7]: 10–15%
concentration at which cytotoxic effect starts ([5]; LDH, 48 h): > 150 µg/mL and 150 µg/mL
